One may read the MIC as the least concentration at which growth counts as inhibited. A lower MIC goes with greater potency.

The values that follow come from US4332891A, “Process for the production of antibiotic Cephamycin C” (Otsuka Pharmaceutical Co., Ltd., priority 1979, dated 1982).

Converted amounts (≈) assume the structure as drawn.

Data set [1] has as its system Bacillus subtilis PCI 219. Description: Antimicrobial spectrum (MIC). The class given is cell-based. The settings on record: PCI219. An excerpt:
(§1) The antimicrobial spectra to various microorganisms of the Cephamycin C produced by the process of this invention are shown as minimum inhibitory concentrations (MIC) in Table 4.

The test system of the next data set is Esherichia coli NIHJ. Description: Antimicrobial spectrum (MIC). The class given is cell-based.
Excerpt: as §1

Another data set has as its system Proteus mirabilis 1287. As to the kind of experiment: Antimicrobial spectrum (MIC). In kind it is cell-based.
Excerpt: as §1

The test system of data set [2] is Proteus vulgaris IID OX-19. As to the kind of experiment: Antimicrobial spectrum (MIC). In kind it is cell-based. The settings on record: IIDOX19.
Excerpt: as §1

In data set [3] the test system is Salmonella typhi 0-901 NCTC 8393. As to the kind of experiment: Antimicrobial spectrum (MIC). In kind it is cell-based. The conditions noted are these: Salmonella enterica.
Excerpt: as §1

The subject of another data set is Sarcina lutea PCI 1001. Description: Antimicrobial spectrum (MIC). In kind it is cell-based. The settings on record: Micrococcus luteus, PCI1001.
Excerpt: as §1

The test system of data set [4] is Staphylococcus aureus FDA 209P. Description: Antimicrobial spectrum (MIC). The settings on record: FDA209P. In kind it is cell-based.
Excerpt: as §1

For data set [5], the system named is Staphylococcus aureus Newman. Description: Antimicrobial spectrum (MIC). The class given is cell-based.
Excerpt: as §1

Another data set in a line: Solubility. The class given is physicochemical.

For `COC1(NC(=O)CCCC(N)C(=O)O)C(=O)N2C(C(=O)O)=C(COC(N)=O)CS[C@@H]21` (some centres unmarked) [Cephamycin C, 7-(5-amino-5-carboxyvalerylamino)-3-carbamoyloxymethyl-7-methoxy-3-cephem-4-carboxylic acid], the minimal inhibitory concentration (MIC) was 15.6 µg/mL (≈ 34.9 µM) in data set [1]; 15.6 µg/mL (≈ 34.9 µM) in the data set with Esherichia coli NIHJ; 7.8 µg/mL (≈ 17.5 µM) in the data set with Proteus mirabilis 1287; 7.8 µg/mL (≈ 17.5 µM) in [2]; 3.9 µg/mL (≈ 8.74 µM) in data set [3]; 15.6 µg/mL (≈ 34.9 µM) in the data set with Sarcina lutea PCI 1001. Also, the minimum inhibitory concentration (MIC) in [4] and in data set [5] was 250 µg/mL (≈ 560 µM) in each case. Also, the Solubility entry was “slightly soluble in dimethylsulfoxide” in “Solubility” (in dimethylsulfoxide), “sparingly soluble in ethanol” in “Solubility” (in ethanol) and “well soluble in water” in “Solubility” (in water).
